Assay results: ChEMBL document CHEMBL5653631, “A Potent and Selective ULK1 Inhibitor Suppresses Autophagy and Sensitizes Cancer Cells to Nutrient Stress” (iScience, 2018)
One block for each compound: values may come before it.

How the values were obtained:
[1] = biological target: T1, Inhibitor of nuclear factor kappa-B kinase subunit epsilon (Homo sapiens) (UniProt Q14164); experiment: Inhibition of human recombinant IKKe at 500 nM in presence of ATP by radiometric assay relative to control
T1 sequence (whole entry): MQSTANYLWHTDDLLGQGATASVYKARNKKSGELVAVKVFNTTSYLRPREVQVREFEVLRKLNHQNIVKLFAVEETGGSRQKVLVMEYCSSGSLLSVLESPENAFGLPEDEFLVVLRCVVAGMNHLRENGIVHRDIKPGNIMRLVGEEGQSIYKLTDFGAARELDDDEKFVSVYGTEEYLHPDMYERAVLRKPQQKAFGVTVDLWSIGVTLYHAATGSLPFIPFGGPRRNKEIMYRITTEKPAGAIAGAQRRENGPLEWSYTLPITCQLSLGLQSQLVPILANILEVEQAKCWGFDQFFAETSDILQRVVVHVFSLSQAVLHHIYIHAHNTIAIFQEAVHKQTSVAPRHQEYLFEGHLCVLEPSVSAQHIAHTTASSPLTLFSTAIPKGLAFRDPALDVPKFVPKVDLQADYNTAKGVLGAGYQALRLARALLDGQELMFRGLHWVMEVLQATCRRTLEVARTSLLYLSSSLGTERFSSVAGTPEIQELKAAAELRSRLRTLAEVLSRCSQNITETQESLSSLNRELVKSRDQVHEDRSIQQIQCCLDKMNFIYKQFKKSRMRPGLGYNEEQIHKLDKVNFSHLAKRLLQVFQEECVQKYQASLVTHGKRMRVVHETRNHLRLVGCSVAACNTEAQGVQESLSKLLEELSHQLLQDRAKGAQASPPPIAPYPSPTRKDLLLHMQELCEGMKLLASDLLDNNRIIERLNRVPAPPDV

[2] = biological target: LIM domain kinase 1 (Homo sapiens) (UniProt P53667); experiment: Inhibition of human recombinant LIMK1 at 500 nM related to control ULK1
[3] = biological target: T2, Dual specificity tyrosine-phosphorylation-regulated kinase 2 (Homo sapiens) (UniProt Q92630); experiment: Inhibition of human recombinant DYRK2 at 15 nM in presence of ATP by radiometric assay relative to control
T2 sequence (whole entry): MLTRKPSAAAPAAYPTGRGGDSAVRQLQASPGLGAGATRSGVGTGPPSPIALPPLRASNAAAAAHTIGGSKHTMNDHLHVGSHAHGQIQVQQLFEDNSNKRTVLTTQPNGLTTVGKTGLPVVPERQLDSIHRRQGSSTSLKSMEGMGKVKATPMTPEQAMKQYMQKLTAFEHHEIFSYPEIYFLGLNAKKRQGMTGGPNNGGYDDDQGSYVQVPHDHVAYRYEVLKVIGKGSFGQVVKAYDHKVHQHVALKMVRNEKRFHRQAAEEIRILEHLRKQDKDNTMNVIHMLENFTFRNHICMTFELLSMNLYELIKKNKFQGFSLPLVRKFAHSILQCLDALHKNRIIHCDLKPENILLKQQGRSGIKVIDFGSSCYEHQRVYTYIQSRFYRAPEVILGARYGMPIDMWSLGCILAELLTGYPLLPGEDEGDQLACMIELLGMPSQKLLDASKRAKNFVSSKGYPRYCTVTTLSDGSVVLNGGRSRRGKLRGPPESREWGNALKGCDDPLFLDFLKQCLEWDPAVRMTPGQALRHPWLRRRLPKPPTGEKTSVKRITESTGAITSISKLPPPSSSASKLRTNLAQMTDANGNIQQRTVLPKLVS

[4] = biological target: Serine/threonine-protein kinase mTOR (Homo sapiens) (UniProt P42345); experiment: Inhibition of human recombinant FRAP at 15 nM in presence of ATP by radiometric assay relative to control
[5] = biological target: T3, Tyrosine-protein kinase ITK/TSK (Homo sapiens) (UniProt Q08881); experiment: Inhibition of human recombinant ITK at 15 nM related to control ULK1
T3 sequence (whole entry): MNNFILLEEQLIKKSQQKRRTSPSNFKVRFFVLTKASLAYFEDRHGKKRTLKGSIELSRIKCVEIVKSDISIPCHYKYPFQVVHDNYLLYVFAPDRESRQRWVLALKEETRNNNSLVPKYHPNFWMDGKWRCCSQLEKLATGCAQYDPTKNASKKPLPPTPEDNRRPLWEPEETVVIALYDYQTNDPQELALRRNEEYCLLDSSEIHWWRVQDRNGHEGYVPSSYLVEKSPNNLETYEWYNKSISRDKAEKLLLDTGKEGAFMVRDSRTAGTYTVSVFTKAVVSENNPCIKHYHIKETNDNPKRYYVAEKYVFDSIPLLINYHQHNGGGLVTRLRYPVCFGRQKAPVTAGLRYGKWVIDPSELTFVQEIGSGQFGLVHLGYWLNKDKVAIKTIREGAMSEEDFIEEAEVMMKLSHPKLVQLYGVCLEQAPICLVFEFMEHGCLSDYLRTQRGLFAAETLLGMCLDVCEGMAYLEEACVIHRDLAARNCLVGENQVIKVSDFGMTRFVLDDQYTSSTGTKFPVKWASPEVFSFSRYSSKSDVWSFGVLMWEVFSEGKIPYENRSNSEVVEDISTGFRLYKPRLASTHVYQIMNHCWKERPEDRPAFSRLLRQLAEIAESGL

[6] = biological target: Mitogen-activated protein kinase 14 (Homo sapiens) (UniProt Q16539); experiment: Inhibition of human recombinant p38alpha at 15 nM related to control ULK1
[7] = biological target: Mast/stem cell growth factor receptor Kit (Homo sapiens) (UniProt P10721); experiment: Inhibition of human recombinant KIT at 40 nM in presence of ATP by radiometric assay relative to control
[8] = biological target: T4, Dual specificity mitogen-activated protein kinase kinase 6 (Homo sapiens) (UniProt P52564); experiment: Inhibition of human recombinant MAP2K6 at 40 nM in presence of ATP by radiometric assay relative to control
T4 sequence (whole entry): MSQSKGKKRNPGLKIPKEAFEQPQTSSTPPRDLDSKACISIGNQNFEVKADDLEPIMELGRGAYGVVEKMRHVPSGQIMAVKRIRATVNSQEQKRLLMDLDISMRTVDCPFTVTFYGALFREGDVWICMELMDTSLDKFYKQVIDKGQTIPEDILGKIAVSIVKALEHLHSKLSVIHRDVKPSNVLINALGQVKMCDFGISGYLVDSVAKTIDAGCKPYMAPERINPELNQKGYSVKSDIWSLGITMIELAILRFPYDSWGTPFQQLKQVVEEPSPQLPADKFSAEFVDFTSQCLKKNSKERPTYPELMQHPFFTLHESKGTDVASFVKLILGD

[9] = biological target: Serine/threonine-protein kinase PLK2 (Homo sapiens) (UniProt Q9NYY3); experiment: Inhibition of human recombinant PLK2 at 40 nM related to control ULK1
Chain of Serine/threonine-protein kinase PLK2 (Homo sapiens) (Q9NYY3 whole entry, looked up): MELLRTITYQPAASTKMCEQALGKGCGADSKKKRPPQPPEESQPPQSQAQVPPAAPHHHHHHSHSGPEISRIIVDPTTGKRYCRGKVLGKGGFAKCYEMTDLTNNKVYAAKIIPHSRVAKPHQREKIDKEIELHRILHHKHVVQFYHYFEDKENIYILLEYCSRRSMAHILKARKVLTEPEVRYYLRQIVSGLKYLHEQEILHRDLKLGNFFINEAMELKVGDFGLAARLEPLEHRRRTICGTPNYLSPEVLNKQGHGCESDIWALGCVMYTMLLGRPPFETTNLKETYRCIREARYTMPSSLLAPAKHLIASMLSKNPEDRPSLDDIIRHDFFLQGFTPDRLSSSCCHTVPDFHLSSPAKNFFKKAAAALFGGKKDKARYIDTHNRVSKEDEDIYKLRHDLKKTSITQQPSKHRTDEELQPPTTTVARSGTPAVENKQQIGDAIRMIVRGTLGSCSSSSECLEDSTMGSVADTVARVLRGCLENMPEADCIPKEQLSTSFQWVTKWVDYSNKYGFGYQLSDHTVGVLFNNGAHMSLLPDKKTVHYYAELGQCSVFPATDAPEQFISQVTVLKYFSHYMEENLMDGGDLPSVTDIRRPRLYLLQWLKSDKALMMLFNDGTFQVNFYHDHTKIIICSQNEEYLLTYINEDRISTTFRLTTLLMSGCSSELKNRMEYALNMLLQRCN

Chain of Mast/stem cell growth factor receptor Kit (Homo sapiens) (P10721 whole entry): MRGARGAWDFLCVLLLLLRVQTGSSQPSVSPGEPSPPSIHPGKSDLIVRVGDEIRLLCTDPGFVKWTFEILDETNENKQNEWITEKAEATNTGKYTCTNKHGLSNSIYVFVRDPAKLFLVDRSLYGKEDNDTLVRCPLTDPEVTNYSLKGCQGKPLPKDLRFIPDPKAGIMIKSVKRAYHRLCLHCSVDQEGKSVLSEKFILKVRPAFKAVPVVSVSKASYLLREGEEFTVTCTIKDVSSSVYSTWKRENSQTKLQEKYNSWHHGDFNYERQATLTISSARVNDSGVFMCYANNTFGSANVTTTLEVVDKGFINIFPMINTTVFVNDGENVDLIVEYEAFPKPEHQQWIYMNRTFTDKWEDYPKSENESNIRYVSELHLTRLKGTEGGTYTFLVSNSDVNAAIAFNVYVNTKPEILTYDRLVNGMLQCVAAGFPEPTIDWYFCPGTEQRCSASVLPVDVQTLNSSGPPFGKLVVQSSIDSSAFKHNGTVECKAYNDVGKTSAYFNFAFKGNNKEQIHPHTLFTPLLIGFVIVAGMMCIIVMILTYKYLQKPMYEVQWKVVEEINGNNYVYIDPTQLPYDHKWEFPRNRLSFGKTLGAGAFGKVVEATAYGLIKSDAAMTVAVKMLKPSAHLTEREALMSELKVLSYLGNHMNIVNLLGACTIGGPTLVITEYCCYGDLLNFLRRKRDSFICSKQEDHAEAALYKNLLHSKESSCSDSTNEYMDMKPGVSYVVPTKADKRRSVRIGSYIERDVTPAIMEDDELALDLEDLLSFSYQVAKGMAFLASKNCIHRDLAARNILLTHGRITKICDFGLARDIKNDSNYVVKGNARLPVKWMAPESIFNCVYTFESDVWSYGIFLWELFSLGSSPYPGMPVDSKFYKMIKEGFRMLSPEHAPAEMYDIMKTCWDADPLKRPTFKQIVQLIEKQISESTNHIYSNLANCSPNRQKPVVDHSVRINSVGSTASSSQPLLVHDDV
Chain of LIM domain kinase 1 (Homo sapiens) (P53667 whole entry, looked up, the tested form may be a part): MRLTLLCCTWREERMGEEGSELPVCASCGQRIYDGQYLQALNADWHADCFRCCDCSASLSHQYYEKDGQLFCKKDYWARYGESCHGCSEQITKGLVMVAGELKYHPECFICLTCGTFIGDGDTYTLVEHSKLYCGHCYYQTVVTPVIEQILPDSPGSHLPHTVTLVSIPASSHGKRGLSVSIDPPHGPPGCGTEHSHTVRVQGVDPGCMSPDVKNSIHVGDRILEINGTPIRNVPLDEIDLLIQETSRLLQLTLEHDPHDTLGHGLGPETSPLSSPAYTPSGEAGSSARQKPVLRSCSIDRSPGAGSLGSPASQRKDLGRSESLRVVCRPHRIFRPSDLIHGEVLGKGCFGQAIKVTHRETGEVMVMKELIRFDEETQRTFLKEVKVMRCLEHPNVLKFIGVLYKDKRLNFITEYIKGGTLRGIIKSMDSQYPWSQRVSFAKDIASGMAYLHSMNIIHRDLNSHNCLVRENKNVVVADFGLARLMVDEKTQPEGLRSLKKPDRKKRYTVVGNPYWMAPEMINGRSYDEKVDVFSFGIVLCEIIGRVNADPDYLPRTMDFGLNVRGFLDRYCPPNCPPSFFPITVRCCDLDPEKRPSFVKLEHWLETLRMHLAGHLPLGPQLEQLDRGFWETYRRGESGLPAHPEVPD
Chain of Mitogen-activated protein kinase 14 (Homo sapiens) (Q16539 whole entry): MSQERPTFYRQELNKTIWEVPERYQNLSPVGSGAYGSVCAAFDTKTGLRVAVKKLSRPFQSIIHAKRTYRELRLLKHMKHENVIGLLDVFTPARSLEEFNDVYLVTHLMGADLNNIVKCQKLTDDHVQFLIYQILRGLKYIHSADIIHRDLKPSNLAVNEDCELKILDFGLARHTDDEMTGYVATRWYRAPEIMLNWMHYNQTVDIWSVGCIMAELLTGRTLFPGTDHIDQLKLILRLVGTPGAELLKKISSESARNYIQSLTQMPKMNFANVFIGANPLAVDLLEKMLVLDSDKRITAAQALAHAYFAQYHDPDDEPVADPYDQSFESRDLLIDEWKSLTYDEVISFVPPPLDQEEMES

- inhibition [1]: 0%
- fold change (FC) [2]: 0.03
Compound: CNC(=O)c1ccccc1Oc1nc(Nc2cc(OC)c(OC)c(OC)c2)ncc1Br

- inhibition [3]: 8%
- inhibition [4]: 0%
- fold change (FC) [5]: 0.05
- fold change (FC) [6]: 0.06
Compound: CC(C)[C@H](NC(=O)c1cc(-c2cnn3cc(-c4ccc(OCCN5CCCCC5)cc4)cnc23)cs1)C(F)(F)F

- inhibition [7]: 0%
- inhibition [8]: 0%
- fold change (FC) [9]: 0.04
Compound: O=C(N[C@@H](C1CC1)C(F)(F)F)c1cc(-c2cnn3cc(-c4ccc(F)cc4)cnc23)cs1
